Where two headings read alike, the source gives them in different places. Values belong to the compound of their own block, whether it stands above or below them.
What was measured:
[1] = molecular target: T1, AP-1 (Homo sapiens, UniProt P01100+P05412); assay: AP-1 inhibition assay (ELISA), AP-1 binding to AP-1 recognition sequence
T1 construct: (Histidine)6; Strep-tag; made in house; host or cells: bacterial cells harboring pFos-Jun
Procedure: To test the effect of the compounds of the present disclosure on AP-1 binding activity to AP-1 recognition sequence, ELISA experiments were performed.
According to implementations, binding assays were developed to identify inhibitors that block the AP-1 DNA binding activities. Traditional methods call for the preparation of nuclear extracts from TPA-stimulated cells, or require separate purification of Fos and Jun followed with in vitro dimerization to form a functional AP-1 complexes. A bicistronic expression vector that can drive the expression of two genes in one plasmid was thus designed as shown in FIG. 7. In this system, a promoter would directly drive the expression of the first gene, which is connected to the second gene via a ribosome-binding site in order to confer the expression of the second genes. Any pair of genes that form heterodimer in the cells for their physiological functions can be potentially expressed as complexes in the cells using this system.
According to implementations, the expression system of FIG. 7 was used to co-express AP-1 complexes. Accordingly, Fos (as gene 1) was tagged with a (Histidine)6 tag and Jun (as Gene 2) was tagged with Strep-tag as illustrated in FIG. 8A. […] Cross-linking experiments further confirmed the Fos-Jun complexes are dimers (FIG. 8C).
The crude extracts containing or the purified proteins were used for ELISA-based and fluorescence anisotropy-based binding analysis. Labeled oligonucleotides containing one or more copies of AP-1 consensus binding sites were used in the binding assays. Biotin-labeled oligonucleotides were used to coat streptavidin-plates in ELISA-binding assays. Rhodamine or fluorescein or other fluorophores-labeled oligonucleotides were used for fluorescence anisotropy analysis.

[2] = test system: Human umbilical vein endothelial (HUVEC) cells; assay: LPS-induced cytokine/chemokine expression in HUVEC cells (Luminex); assay type: cell-based; parameters: unit not given here; details: HUVEC cells incubated with LPS, PA crude extract 1 mg/ml
Procedure: Human umbilical vein endothelial (HUVEC) cells were incubated with LPS in the absence or presence of 1 mg/ml crude extract of PA. The cytokine expression profile was determined using Luminex.

[3] = test system: AP-1 transcription factors; assay: ELISA-based AP-1/DNA binding assay with nuclear extracts from TPA-activated HeLa or K562 cells; details: fractions of PA crude extract from preparative C18 HPLC; FIG. 4
Procedure: According to implementations of experimental data shown in FIG. 5, oligonucleotide containing AP-1 binding sites were incubated nuclear extracts from TPA-stimulated K562 (K562) or HeLa (HeLa) cells. The antibodies to AP-1 complexes were added followed with horseradish peroxidase-labeled secondary antibody for ELISA-based analysis. AP-1 binding activity in the nuclear extract from TPA-stimulated cells was defined as 100% and the AP-1 binding activity of buffer only was defined as 0%.
According to implementations of experimental data shown in FIG. 6, AP-1 complexes can be formed by different proteins such as C-Jun, JunB, JunD, c-Fos, Fos-B, Fra-1 or Fra-2.
Due to the involvement of AP-1 activity in inflammatory signaling, the effects of the PA crude extract on AP-1/DNA binding activity was examined. […] The nuclear extract prepared from TPA-activated HeLa or K562 cells were used as AP-1 protein sources. After incubating with the oligonucleotides containing AP-1 binding sites, the AP-1/DNA complexes were detected with HRP-conjugated anti-c-Fos antibodies.
The PA crude extract was further fractionated with preparative HPLC using C18 column. […] This fraction was further purified by employing another C18 column using the solvent gradient from 2% acetonitrile to 90% acetonitrile containing 0.1% trifluoreoacetic acid. […]

[4] = ELISA, AP-1 binding activity to AP-1 recognition sequence, read-out: IC50 (AP-1 inhibition assay)

T1 sequence (P01100 whole entry): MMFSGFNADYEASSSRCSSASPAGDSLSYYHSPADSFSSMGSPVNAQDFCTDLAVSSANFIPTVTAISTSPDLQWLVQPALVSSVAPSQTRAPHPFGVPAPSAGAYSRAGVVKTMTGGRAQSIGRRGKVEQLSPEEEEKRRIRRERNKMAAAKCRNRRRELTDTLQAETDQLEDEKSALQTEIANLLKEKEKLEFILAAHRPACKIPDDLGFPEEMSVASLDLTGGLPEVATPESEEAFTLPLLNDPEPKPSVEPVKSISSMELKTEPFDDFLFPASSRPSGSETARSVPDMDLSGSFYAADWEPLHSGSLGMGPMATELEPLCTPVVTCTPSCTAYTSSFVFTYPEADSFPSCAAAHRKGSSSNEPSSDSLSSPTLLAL
T1 sequence (P05412 whole entry): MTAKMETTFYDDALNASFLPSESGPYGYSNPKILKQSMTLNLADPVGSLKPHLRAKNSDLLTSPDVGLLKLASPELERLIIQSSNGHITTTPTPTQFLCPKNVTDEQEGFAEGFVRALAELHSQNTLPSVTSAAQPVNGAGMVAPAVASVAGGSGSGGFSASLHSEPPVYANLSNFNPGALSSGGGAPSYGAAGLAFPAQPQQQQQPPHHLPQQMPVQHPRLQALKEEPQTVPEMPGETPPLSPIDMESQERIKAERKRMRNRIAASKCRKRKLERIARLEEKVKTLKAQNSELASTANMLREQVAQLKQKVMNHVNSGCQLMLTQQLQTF

Structure (SMILES): COc1ccc2c(c1)c(CC(=O)O)c(C)n2C(=O)c1ccc(Cl)cc1 [Indomethacin]
- Eotaxin expression [2]: 29.1
- GM-CSF expression [2]: 220
- IFNg expression [2]: 2.41
- IL-1a expression [2]: 13.8
- IL-1b expression [2]: 11.7
- IL-2 expression [2]: 10.1
- IL-3 expression [2]: 8.82
- IL-4 expression [2]: 11.8
- IL-5 expression [2]: 1.24
- IL-6 expression [2]: 62300
- IL-7 expression [2]: 51.5
- IL-8 expression [2]: 8030
- IL-10 expression [2]: 1.12
- IL-12 (p40) expression [2]: 16.4
- IL-12 (p70) expression [2]: 6.43
- IL-13 expression [2]: 11.1
- IL-15 expression [2]: 13.4
- IP-10 expression [2]: 24.5
- MCP-1 expression [2]: 41800
- MIP-la expression [2]: 7.57
- RANTES expression [2]: 5.48
- TNFa expression [2]: 8.14

Structure (SMILES): O=C(/C=C/c1cc(O)c(O)cc1[N+](=O)[O-])OC(Cc1cc(O)c(O)cc1[N+](=O)[O-])C(=O)O (stereo not drawn) [Compound 11]
- IC50 [1, 4]: 21.3 ± 24 µM

Structure (SMILES): O=C(O)/C(=C\c1ccc(O)c(O)c1)C(c1ccc(O)c(O)c1)C(O)C(=O)O (single isomer, unassigned) [Mena 987 (1)]
- IC50 [1, 4]: 4.3 ± 2.6 µM

Structure (SMILES): O=C(/C=C/c1ccc(O)c(O)c1)NC[C@@H](O)C(=O)Oc1cccc(O)c1O [CHM9102]
- Inhibitory effects against AP-1 binding of HPLC fractions and isolated components (in words) [3]: inhibitory effects

Structure (SMILES): O=C(OC(Cc1ccc(O)c(O)c1)C(=O)O)C1=Cc2ccc(O)c(O)c2C(C(=O)OC(Cc2ccc(O)c(O)c2)C(=O)O)C1c1ccc(O)c(O)c1 (stereo not drawn) [Mena 9102 (3)]
- IC50 [1, 4]: 1.4 ± 0.9 µM

Structure (SMILES): O=C(/C=C/c1ccc(O)c(O)c1)NCCc1ccc(O)c(O)c1 [Compound 8]
- IC50 [1, 4]: 12.9 ± 5.9 µM

Structure (SMILES): CCOC(=O)[C@H](Cc1ccc(O)c(O)c1)NC(=O)/C=C/c1ccc(O)c(O)c1 [Compound 6]
- IC50 [1, 4]: 32.5 ± 24 µM

Structure (SMILES): O=C(/C=C/c1ccc(O)c(O)c1)N[C@@H](Cc1ccc(O)c(O)c1)C(=O)O [Compound 7]
- IC50 [1, 4]: 9.2 ± 3.2 µM

Structure (SMILES): CCOP(=O)(OCC)C(Cc1ccc(O)c(O)c1)NC(=O)/C=C/c1ccc(O)c(O)c1 (stereo not drawn) [Compound 9]
- IC50 [1]: 26.2 ± 18.9 µM

Further lines, with some results ahead:

- IC50 [1, 4]: 8 ± 4.7 µM
Structure (SMILES): COC(=O)C(Cc1ccc(O)c(O)c1)NC(=O)C(Cc1ccc(O)c(O)c1)NC(=O)C=Cc1ccc(O)c(O)c1 (stereo not drawn) [Compound 19]

- IC50 [1, 4]: 39 ± 31 µM
Structure (SMILES): COC(=O)C(Cc1ccc(O)c(O)c1)NC(=O)/C=C/c1ccc(O)c(O)c1 (stereo not drawn) [Compound 5]

- IC50 [1, 4]: 21.3 ± 24 µM
Structure (SMILES): COC(=O)C(Cc1ccc(O)c(O)c1)NC(=O)C(Cc1cc(O)c(O)cc1[N+](=O)[O-])OC(=O)C=Cc1ccc(O)c(O)c1 (stereo not drawn) [Compound 16]

- IC50 [1, 4]: 43.4 ± 28.2 µM
Structure (SMILES): COC(=O)C(Cc1c[nH]c2ccccc12)NC(=O)C(Cc1ccc(O)c(O)c1)OC(=O)C=Cc1ccc(O)c(O)c1 (stereo not drawn) [Compound 17]

- IC50 [1, 4]: 3.5 ± 2 µM
Structure (SMILES): O=C(C=Cc1ccc(O)c(O)c1)NC(Cc1ccc(O)c(O)c1)C(=O)NC(Cc1ccc(O)c(O)c1)C(=O)O (stereo not drawn) [Compound 20]

- IC50 [1, 4]: 5.6 ± 4.2 µM
Structure (SMILES): CCOC(=O)C(Cc1ccc(O)c(O)c1)OC(=O)/C=C/c1ccc(O)c(O)c1 (stereo not drawn) [Compound 10]

- IC50 [1, 4]: 1.2 ± 0.8 µM
Structure (SMILES): CCOC(=O)C(Cc1ccc(O)c(O)c1)NC(=O)[C@H](Cc1ccc(O)c(O)c1)OC(=O)/C=C/c1ccc(O)c(O)c1 (stereo partly drawn) [Compound 14]

- IC50 [1, 4]: 31.9 ± 20 µM
Structure (SMILES): O=C(C=Cc1ccc(O)c(O)c1)OC(Cc1ccc(O)c(O)c1)C(=O)NC(Cc1c[nH]c2ccccc12)C(=O)O (stereo not drawn) [Compound 18]

- IC50 [1, 4]: 10 ± 4.1 µM
Structure (SMILES): O=C(/C=C/c1ccc(O)c(O)c1)O[C@H](Cc1ccc(O)c(O)c1)C(=O)O [rosmarinic acid (4), rosmarinic acid]
- Inhibitory effects against AP-1 binding of HPLC fractions and isolated components (in words) [3]: inhibitory effects

- IC50 [1, 4]: 34.7 ± 21.3 µM
Structure (SMILES): O=C(O)CC(NC(=O)C(Cc1ccc(O)c(O)c1)OC(=O)C=Cc1ccc(O)c(O)c1)C(=O)O (stereo not drawn) [Compound 15]

- IC50 [1, 4]: 0.8 ± 0.8 µM
Structure (SMILES): COC(=O)C(Cc1ccc(O)c(O)c1)NC(=O)[C@H](Cc1ccc(O)c(O)c1)OC(=O)/C=C/c1ccc(O)c(O)c1 (stereo partly drawn) [Compound 13]

From US8105636B2, “Compositions and methods for treating inflammation and inflammation-related disorders by Plectranthus amboinicus extracts” (Academia Sinica, priority 2007, dated 2012)
